In US11071726B2, “Treating gastric cancer using combination therapies comprising liposomal irinotecan, oxaliplatin, 5-fluorouracil (and leucovorin)” (Ipsen Biopharm Ltd., priority 2016, dated 2021):
Read-outs that look alike come from different tables or passages of the source.

Assays:
[1] = human, in vivo
Topoisomerase I = target: T1, Topoisomerase I (Homo sapiens, UniProt P11387); details: metabolite formed by nonspecific carboxylesterases; cited from earlier work
T1 sequence (P11387 1-765): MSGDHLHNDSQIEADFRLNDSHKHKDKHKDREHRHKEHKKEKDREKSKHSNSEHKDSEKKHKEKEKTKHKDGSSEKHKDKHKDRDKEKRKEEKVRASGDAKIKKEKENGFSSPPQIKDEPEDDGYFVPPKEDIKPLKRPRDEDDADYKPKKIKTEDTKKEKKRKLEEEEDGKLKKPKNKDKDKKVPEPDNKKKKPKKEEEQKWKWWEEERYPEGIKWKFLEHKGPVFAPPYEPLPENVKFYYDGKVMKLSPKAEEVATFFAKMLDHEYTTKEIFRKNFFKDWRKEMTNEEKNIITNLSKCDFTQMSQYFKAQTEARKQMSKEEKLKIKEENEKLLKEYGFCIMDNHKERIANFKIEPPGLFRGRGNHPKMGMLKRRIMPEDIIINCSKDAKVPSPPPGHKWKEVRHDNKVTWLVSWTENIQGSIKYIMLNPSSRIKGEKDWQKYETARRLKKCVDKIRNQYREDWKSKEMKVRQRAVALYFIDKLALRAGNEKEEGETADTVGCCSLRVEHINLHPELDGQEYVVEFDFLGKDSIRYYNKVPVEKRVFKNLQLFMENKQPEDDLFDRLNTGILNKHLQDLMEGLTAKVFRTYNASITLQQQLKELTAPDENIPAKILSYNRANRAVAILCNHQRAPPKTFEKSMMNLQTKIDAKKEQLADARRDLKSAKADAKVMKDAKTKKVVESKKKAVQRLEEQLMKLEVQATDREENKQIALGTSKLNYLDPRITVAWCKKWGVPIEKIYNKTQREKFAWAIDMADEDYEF

[2] = cited from earlier work
[3] = single-agent irinotecan 350 mg/m^2 once every-3-weeks, cited from earlier work

irinotecan sucrose octasulfate salt liposome injection [MM-398]
consecutive doses of dose level 1 received by any patient [1]: ≤ 2
patients administered dose level 1 on day 15 of cycle 1 [1]: 3
patients administered dose level −1 on days 1 and 15 of cycle 1 [1]: 6

CCc1c2c(nc3ccc(O)cc13)-c1cc3c(c(=O)n1C2)COC(=O)[C@]3(O)CC [SN-38]
activity relative to irinotecan (Topoisomerase I): 100-1000 fold

FOLFIRINOX
incidence of most common Grade 3-4 adverse events (neutropenia, fatigue, vomiting, diarrhea, thrombocytopenia, sensory neuropathy, anemia, elevated ALT, thromboembolism, febrile neutropenia) ([2]; Phase 3 study of the FOLFIRINOX combination): ≥ 5%
toxicity ([2]; first-line treatment): significant toxicity

CCc1c2c(nc3ccc(OC(=O)N4CCC(N5CCCCC5)CC4)cc13)-c1cc3c(c(=O)n1C2)COC(=O)[C@]3(O)CC [irinotecan, (S)-4,11-diethyl-3,4,12,14-tetrahydro-4-hydroxy-3,14-dioxo1H-pyrano[3′,4′:6,7]-indolizino[1,2-b]quinolin-9-yl-[1,4′bipiperidine]-1′-carboxylate]
incidence of grade 4 neutropenia ([3]; patients heterozygous (UGT1A1 6/7 genotype)): 12.5%
incidence of grade 4 neutropenia ([3]; patients homozygous for the UGT1A1*28 allele): ≤ 50%
grade 4 neutropenia ([3]; patients homozygous for the wild-type allele (UGT1A1 6/6 genotype)): no grade 4 neutropenia was observed
